Experimental data published in patent publication US7122530B2, “24-hydroxyvitamin D, analogs and uses thereof” (Genzyme Corporation, priority 1998, dated 2006).
Like-named read-outs stand apart in the source and are kept apart here. Values belong to the compound of their own block, whether it stands above or below them.

Assays:
[1] = tested on: dermatitis (contact and ectopic) patients; test: Double blind study of oral 24(S)-OH-preD2 formulation in dermatitis (contact and ectopic); type: in vivo, human; conditions: daily oral 10.0 to 20.0 μg, four to six weeks
Protocol: An oral dosage formulation containing 24(S)-OH-preD2 is evaluated in a double blind study for therapeutic efficacy of the formulation in the treatment of dermatitis (contact and ectopic). The formulation evaluated contains 10.0 to 20.0 μg of 24(S)-OH-preD2. […] The patients are treated in an outpatient clinic and are divided into an experimental and control population. They are instructed to take the medication once a day, in the morning before breakfast.
In each patient (experimental and control) an area of the skin containing a lesion is selected which is ordinarily covered by clothing, and the patients are instructed not to expose the skin area selected for study to sunlight. The area of the lesion is estimated and recorded, and the lesion(s) is photographed. Relevant details of the photographic procedure are recorded so as to be reproduced when the lesions are next photographed (distance, aperture, angle, background, etc.).
Evaluations of erythema, scaling, and thickness are conducted at weekly intervals by a physician. The final evaluation is usually carried out at the end of four to six weeks of treatment.

[2] = Production of 1α,24(S)-(OH)2-25-ene-D2 in osteoporotic women (blood metabolite, HPLC and radioreceptor assay); type: in vivo, human; conditions: 25 μg/day for one week; one day following the last dose
Protocol: Human female subjects, who have been diagnosed with osteoporosis, are given daily doses of 25 μg/day 24-OH-25-ene-D2 for one week. Blood is collected and analyzed for the metabolite 1α,24(S)-(OH)2-25-ene-D2. Lipid is extracted from the blood, and the metabolite is purified by HPLC using standard methods and quantified with the radioreceptor assay produced by Incstar (Stillwater, Minn.).

[3] = Blood level of 1α,24-(OH)2-D2 in vitamin D-deficient rats given 24-OH-previtamin D2; type: in vivo; conditions: 0.25 μg/kg oral; four hours after administration
Protocol: Male weanling rats are fed a diet deficient in vitamin D and with normal calcium (0.47%). After a period of four weeks has elapsed, the rats are divided into two groups, and orally administered either 24-OH-previtamin D2 (0.25 μg/kg) in a vehicle such as lactose or the vehicle (control) alone.

[4] = tested on: subjects with secondary hyperparathyroidism; test: Twelve-month placebo-controlled trial of 24-OH-preD2 in elderly subjects with secondary hyperparathyroidism; type: in vivo, human; conditions: 15 μg/day, twelve months
Protocol: (§1) A twelve-month double-blind placebo-controlled clinical trial is conducted with forty subjects with secondary hyperparathyroidism. The selected subjects have ages between 60 and 100 years and have a history of secondary hyperparathyroidism. Subjects also have femoral neck osteopenia (femoral neck bone mineral density of ≦0.70 g/cm^2).
(§2) All subjects enter a six-week control period after which the subjects are randomized into two treatment groups: one group receives a constant dosage of 15 μg/day 24-OH-preD2, and the other group receives a matching placebo. Both groups maintain a normal intake of dietary calcium without the use of calcium supplements. Efficacy is evaluated by pre- and post-treatment comparisons of the two patient groups with regard to (a) intact PTH (iPTH); (b) radial, femoral and spinal bone mineral density; and (c) bone-specific urine markers (e.g., pyridinium crosslinks). Safety is evaluated by (a) serium calcium and phosphorus, and (b) urine calcium and phosphorus.

[5] = tested on: postmenopausal osteoporotic outpatients; test: Clinical study of osteoporosis treatment with 24-OH-preD2; type: in vivo, human; conditions: oral, above 5.0 μg/day, 24 months
Protocol: A clinical study is conducted with postmenopausal osteoporotic outpatients having ages between 55 and 75 years. The study involves up to 120 patients randomly divided into three treatment groups, and continues for 24 months. Two of the treatment groups receive constant dosages of orally administered 24-OH-preD2 (u.i.d.; two different dose levels above 5.0 μg/day) and the other group receives a matching placebo. All patients maintain a normal intake of dietary calcium (500 to 800 mg/day) and refrain from using calcium supplements. Efficacy is evaluated by pretreatment and posttreatment comparisons of the patient groups with regard to (a) total body, radial, femoral, and/or spinal bone mineral density as determined by x-ray absorptiometry (DEXA), (b) bone biopsies of the iliac crest, and (c) determinations of serum osteocalcin. Safety is evaluated by comparisons of urinary hydroxyproline excretion, serum and urine calcium levels, creatinine clearance, blood urea nitrogen, and other routine determinations.

[6] = tested on: patients with advanced androgen-independent prostate cancer; test: Study of Example 10 repeated with 24-OH-preD2 in prostate cancer; type: in vivo, human; conditions: for progression of metastatic disease (CAT scans, X-rays and bone scans): phase two, after two years
Source text: Patients with advanced androgen-independent prostate cancer participate in an open-label study of 24-(OH)-D2. […] On admission to the study, patients begin a course of therapy with oral 24-(OH)-D2 lasting 26 weeks, while discontinuing any previous use of calcium supplements, vitamin D supplements, and vitamin D hormone replacement therapies. During treatment, the patients are monitored at regular intervals for: (1) hypercalcemia, hyperphosphatemia, hypercalciuria, hyperphosphaturia and other toxicity; (2) evidence of changes in the progression of metastatic disease; and (3) compliance with the prescribed test drug dosage.
The study is conducted in two phases. During the first phase, the maximal tolerated dosage (MTD) of daily oral 24-(OH)D2 is determined by administering progressively higher dosages to successive groups of patients. All doses are administered in the morning before breakfast. The first group of patients is treated with 25.0 μg of 24-(OH)D2. Subsequent groups of patients are treated with 50.0, 75.0 and 100.0 μg/day. Dosing is continued uninterrupted for the duration of the study unless serum calcium exceeds 11.6 mg/dL, or other toxicity of grade 3 or 4 is observed, in which case dosing is held in abeyance until resolution of the observed toxic effect(s) and then resumed at a level which has been decreased by 10.0 μg.
The study of Example 10 is repeated for the vitamin D compound, 24-OH-preD2.

[7] = tested on: patients with primary hyperparathyroidism; test: Clinical trial of 24-OH-preD2 for primary hyperparathyroidism; type: in vivo, human
Protocol: Twenty renal patients are enrolled in a clinical trial to study primary hyperparathyroidism. The patients show baseline iPTH levels greater than 200 pg/mL. An initial dose of 24-OH-preD2 (2–4 μg/day) is increased (maximum, 10 μg/day) or decreased as necessary to attain and maintain iPTH in the normal range. After 11–12 weeks of treatment, the iPTH levels of the patients decrease to below 100 pg/mL, and in many cases to below 60 pg/mL.

postmenopausal women = conditions: cited from earlier work
[8] = tested on: patients (Japan; senile osteoporosis); conditions: cited from earlier work
[9] = tested on: postmenopausal osteoporotic out-patients; test: Clinical study of prevention of bone mass loss with 24(S)-OH-25-ene-D2; type: in vivo, human; conditions: at or above 5.0 μg/day, 24 to 36 months
Protocol: A clinical study is conducted with postmenopausal osteoporotic out-patients having ages between 55 and 75 years. The study involves up to 120 patients randomly divided into three treatment groups and continues for 24 to 36 months. Two of the treatment groups receive constant dosages of 24(S)-OH-25-ene-D2 (u.i.d.; two different dose levels at or above 5.0 μg/day) and the other group receives a matching placebo. All patients maintain a normal intake of dietary calcium (500 to 800 mg/day) and refrain from using calcium supplements. Efficacy is evaluated by pre- and post-treatment comparisons of the patient groups with regard to (a) total body calcium retention, and (b) radial and spinal bone mineral density as determined by dual-photon absorptiometry (DPA) or dual-energy x-ray absorptiometry (DEXA). Safety is evaluated by comparisons of urinary hydroxyproline excretion, serum and urine calcium levels, creatinine clearance, blood urea nitrogen, and other routine determinations.

[10] = tested on: subjects with secondary hyperparathyroidism; test: Twelve-month placebo-controlled trial of 24-(OH)-D4 in elderly subjects with secondary hyperparathyroidism; type: in vivo, human; conditions: 15 μg/day, twelve months
Protocol: as §1
as §2, with “24-(OH)-D4,” for “24-OH-preD2,”

[11] = In vivo generation of 1α,24-(OH)2-D2 in vitamin D-deficient rats (plasma metabolites by HPLC)
Protocol: 24-OH-D2 was administered (either oral or intraperitoneal supplementation) to vitamin D-deficient rats. Lipid extracts of the plasma were prepared and the metabolites purified by the method of Horst et al. (Horst, R. L., Koszewski, N. J. and Reinhardt, T. A., Biochem., 29:578–82 (1990) and incorporated herein by reference) described below for synthesizing standard biological 1α,24-(OH)2D2.

Compound: 24(S)-hydroxyprevitamin D2 [24(S)-OH-preD2]
- degree of erythema, scaling, and thickness versus control patients [1]: significantly reduces

- level of 1α,24(S)-(OH)2-25-ene-D2 in the blood [2]: significant level
Compound: 24-hydroxy-25-ene-vitamin D2 [24-OH-25-ene-D2]

Compound: 24-hydroxyprevitamin D2 [24-OH-preD2]
- blood level of 1α,24-(OH)2-D2 versus control animals [3]: significantly elevated
- bone specific urine markers [4]: significantly decreases
- incidence of hypercalcemia [4]: insignificant incidence
- intact PTH (iPTH) [4]: significantly decreases
- radial and spinal bone densities relative to baseline values [4]: stable
- serum calcium levels [4]: normal serum calcium levels
- bone biopsies (bone formation) [5]: stimulates normal bone formation
- incidence of hypercalcemia or hypercalciuria, or any other metabolic disturbance [5]: insignificant incidence
- serum osteocalcin [5]: significant elevations
- total body, radial, femoral, and/or spinal bone densities relative to placebo [5]: significantly higher
- progression of metastatic disease (CAT scans, X-rays and bone scans) ([6]; higher dosage): stable disease and partial or complete remission in many patients
- progression of metastatic disease (CAT scans, X-rays and bone scans) ([6]; lower dosage): stable disease or partial remission in many patients
- bone pain associated with metastatic disease ([6]; treated with the MTD for at least six months): significantly diminished
- iPTH levels of the patients ([7]; after 11–12 weeks, baseline greater than 200 pg/mL, 2–4 μg/day, titrated): below 100 pg/mL
- iPTH levels, in many cases ([7]; after 11–12 weeks, in many cases): below 60 pg/mL
- episodes of hypercalcemia ([7]; during the study): few episodes of hypercalcemia

Compound: C=C1/C(=C\C=C2/CCC[C@]3(C)[C@@H]([C@H](C)CCCC(C)(C)O)CC[C@@H]23)C[C@@H](O)C[C@@H]1O [1α,25-dihydroxyvitamin D3]
- intestinal calcium absorption and calcium balance (postmenopausal women; 0.5 μg/day, postmenopausal women): improved
- effects on bone mass or mineral content (postmenopausal women; dosage levels below 0.5 μg/day): no effects are observed

Compound: C=C1/C(=C\C=C2/CCC[C@]3(C)[C@@H]([C@H](C)CCCC(C)C)CC[C@@H]23)C[C@@H](O)C[C@@H]1O [1α-hydroxyvitamin D3]
- efficacy ([8]; 1 μg/day, Japan, low calcium intake): efficacy is found
- patients in whom toxicity occurs ([8]; 1 μg/day): approximately 20%
- patients in whom toxicity occurs ([8]; 2 μg/day): approximately 67%

Compound: C=C1CC[C@H](O)C/C1=C/C=C1\CCC[C@]2(C)[C@@H]([C@H](C)/C=C/[C@](C)(O)C(=C)C)CC[C@@H]12 [24(S)-OH-25-ene-D2]
- incidence of hypercalcemia or hypercalciuria, or any other metabolic disturbance [9]: insignificant incidence
- total body calcium, and radial and spinal bone densities relative to placebo [9]: significantly higher

- serum calcium levels [10]: normal serum calcium levels
Compound: C=C1CC[C@H](O)C/C1=C/C=C1\CCC[C@]2(C)[C@@H]([C@H](C)CCC(C)(O)C(C)C)CC[C@@H]12 (some centres unmarked) [24-(OH)-D4, 24-hydroxyvitamin D4]
- bone specific urine markers [10]: significantly decreases
- incidence of hypercalcemia [10]: insignificant incidence
- intact PTH (iPTH) [10]: significantly decreases
- radial and spinal bone densities relative to baseline values [10]: stable

Compound: C=C1CC[C@H](O)C/C1=C/C=C1\CCC[C@]2(C)[C@@H]([C@H](C)/C=C/[C@H](C)C(C)C)CC[C@@H]12 [vitamin D2]
- metabolite isolated from plasma lipid extracts versus standard 1α,24-(OH)2D2 ([11]; vitamin D-deficient rats, oral or intraperitoneal supplementation, HPLC): co-migrated on HPLC with the standard 1α,24-(OH)2D2

Compound: C=C1CC[C@H](O)C/C1=C/C=C1\CCC[C@]2(C)[C@@H]([C@H](C)CCCC(C)C)CC[C@@H]12 [vitamin D3]
- detectable 24-OH-D3 in plasma ([11]; comparable vitamin D-deficient rats): no detectable 24-OH-D3
